Tested on: 388556-164-R-J1-PDC complex spheroid viability
Experiment: Anticancer human tumor 388556-164-R-J1-PDC patient-derived colon adenocarcinoma cell line growth inhibition [RAS]
Details: for IC50: curve of first compound; for viability, T/C: stronger effect = lower value
Text: RAS pathway inhibitors in Combinations in Complex Spheroids
A high-throughput screen of multi-cell type tumor spheroids was designed to identify active combinations of RAS pathway inhibitors and targeted small molecules. Complex spheroids include a stromal component modeled by human endothelial cells (HUVEC) and fibroblasts modeled by human mesenchymal stem cells (MSCs). The concentration ranges selected for each drug and investigational agent were based upon clinically achievable concentrations if the clinical Cmax of the agent was known.
Compounds. The drugs and investigational agents: abemaciclib (NSC768073), cobimetinib (NSC768068), divarasib (GDC6063, NSC841802), docetaxel (NSC628503), GDC-1971 (RLY-1971, NSC841576), gemcitabine (NSC613327), inavolisib (NSC800729), ipatasertib (NSC767898), KB-0742 (NSC834161), MRTX-1133 (NSC836407), osimertinib (NSC779217), RMC-4630 (NSC839698), RMC-6236 (NSC851965), RMC-6291 (NSC852671), Ro-3306 (NSC812927), sapanisertib (NSC764658), SN-38 (NSC673596), staurosporine (NSC755774), SY5609 (NSC837396), and tovorafenib (DAY101, NSC766906), were obtained from the National Cancer Institute (NCI) Developmental Therapeutics Program Chemical Repository. The FDA-approved anticancer drug set is available from the NCI Developmental Therapeutics Program. […] The stock solutions were prepared in dimethyl sulfoxide (DMSO, Sigma-Aldrich, St. Louis, MO, cat. D2650) at 800-fold the tested concentration and stored at -70 degrees C prior to their use. All drugs and investigational agents were tested over a range starting from a high concentration at or near the clinical Cmax and decreasing in half-log increments. If the clinical Cmax for an agent had not been determined, the highest concentration tested was 10 microM.
Cell Culture. All cells were maintained in an incubator at 37 degrees C and 5% CO2 with 95% humidity. The PDC lines were cultured according to standard operating procedures established by the NCI PDMR. All PDCs were thawed and cultured in Matrigel-coated flasks prepared with a working solution of 1X Ham's F-12 nutrient mix, without supplementation (Invitrogen, Waltham, MA, cat. 11765054), 100 U/mL penicillin-streptomycin (Invitrogen, cat. 15140122), and 2.5% Matrigel (Corning Inc., Corning, NY, cat. 354248) for the first three passages. The 362531-283-R-J2-PDC and 782815-120-R-J1-PDC lines were cultured in 6C/Colon 1B media, which includes advanced DMEM/F-12 (Thermo Fisher Scientific, cat. 12634028), 10 mM HEPES (Thermo Fisher Scientific, cat. 15630080), 1X GlutaMAX supplement (Thermo Fisher Scientific, cat. 35050061), 0.1 mg/mL primocin (InvivoGen, San Diego, CA, cat. ant-pm-2), 10% defined fetal bovine serum, heat inactivated (HyClone Laboratories Inc., Logan, UT, cat. SH30070.03HI), 50% L-WRN conditioned media (ATCC, cat. CRL-3276), 1.25 mM N-Acetyl-L-cysteine (Sigma-Aldrich, cat. A9165), 10 mM nicotinamide (Sigma-Aldrich, cat. N0636), 1X B-27 supplement (Thermo Fisher Scientific, cat. 17504044), 1X N-2 supplement (Thermo Fisher Scientific, cat. 17502048), 50 ng/mL human EGF (Thermo Fisher Scientific, cat. PHG0311), and 10 microM Y-27632 dihydrochloride (Tocris Bioscience, cat. 1254). The K12877-001-R-J1-PDC line was cultured in 6I media, which includes all 6C/Colon 1B media plus 10 ng/mL human FGF-10 (PeproTech, cat. 100-26), 1 ng/mL human FGF-2 (PeproTech, cat. 100-18B), 1 µM prostaglandin E2 (Tocris Bioscience, cat. 2296), […] hydrocortisone (Sigma-Aldrich, cat. H4001), and […] bovine insulin (Sigma-Aldrich, cat. I6634). The K86415-001-R-J1-PDC line was cultured in 6D media, which includes all 6C/Colon 1B media components minus the L-WRN conditioned media. The 485176-168-R4-J1-PDC was cultured in PANC media, which includes all 6C/Colon 1B media plus 100 ng/mL human FGF-10 (PeproTech, cat. 100-26), 500 nM SB-431542 (Selleckchem, cat. S1067), and 10 nM gastrin (Tocris Bioscience, cat. 3006). […]

[1] = second compound 0.00316 µM, first compound 0.00316 µM
[2] = second compound 0.00316 µM, first compound 0.01 µM
[3] = second compound 0.00316 µM, first compound 0.0316 µM
[4] = second compound 0.00316 µM, first compound 0.1 µM
[5] = second compound 0.00316 µM, first compound 0.316 µM
[6] = second compound 0.00316 µM, first compound 1 µM
[7] = second compound 0.01 µM, first compound 0.00316 µM
[8] = second compound 0.01 µM, first compound 0.01 µM
[9] = second compound 0.01 µM, first compound 0.0316 µM
[10] = second compound 0.01 µM, first compound 0.1 µM
[11] = second compound 0.01 µM, first compound 0.316 µM
[12] = second compound 0.01 µM, first compound 1 µM
[13] = second compound 0.0316 µM, first compound 0.00316 µM
[14] = second compound 0.0316 µM, first compound 0.01 µM
[15] = second compound 0.0316 µM, first compound 0.0316 µM
[16] = second compound 0.0316 µM, first compound 0.1 µM
[17] = second compound 0.0316 µM, first compound 0.316 µM
[18] = second compound 0.0316 µM, first compound 1 µM
[19] = second compound 0.1 µM, first compound 0.00316 µM
[20] = second compound 0.1 µM, first compound 0.01 µM
[21] = second compound 0.1 µM, first compound 0.0316 µM
[22] = second compound 0.1 µM, first compound 0.1 µM
[23] = second compound 0.1 µM, first compound 0.316 µM
[24] = second compound 0.1 µM, first compound 1 µM
[25] = second compound 0.316 µM, first compound 0.00316 µM
[26] = second compound 0.316 µM, first compound 0.01 µM
[27] = second compound 0.316 µM, first compound 0.0316 µM
[28] = second compound 0.316 µM, first compound 0.1 µM
[29] = second compound 0.316 µM, first compound 0.316 µM
[30] = second compound 0.316 µM, first compound 1 µM
[31] = second compound 1 µM, first compound 0.00316 µM
[32] = second compound 1 µM, first compound 0.01 µM
[33] = second compound 1 µM, first compound 0.0316 µM
[34] = second compound 1 µM, first compound 0.1 µM
[35] = second compound 1 µM, first compound 0.316 µM
[36] = second compound 1 µM, first compound 1 µM
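Also: spheroids exposed to compound for 7 days before readout.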
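For viability, T/C in this document: 100% = DMSO vehicle control luminescence.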

For C=CC(=O)Nc1cc(Nc2nccc(-c3cn(C)c4ccccc34)n2)c(OC)cc1N(C)CCN(C)C + C=CC(=O)N1CCN(c2nc(OCC3CCCN3C)nc3c(F)c(-c4nc(N)cc(C)c4C(F)(F)F)c(Cl)cc23)C(C)C1, the IC50 (second compound 0.00316 µM) was > 1000 nM, the IC50 (second compound 0.01 µM) was > 1000 nM and the IC50 (second compound 0.0316 µM) was > 1000 nM. For the same compound, the IC50 (second compound 0.1 µM) was > 1000 nM, the IC50 (second compound 0.316 µM) was > 1000 nM and the IC50 (second compound 1 µM) was > 1000 nM. It also gave a viability, T/C [1] of 110%, a viability, T/C [2] of 99.2% and a viability, T/C [3] of 92.6%. The viability, T/C [4] was 80.3%, the viability, T/C [5] was 68.6% and the viability, T/C [6] was 52.8%. For the same compound, the viability, T/C [7] was 104%, the viability, T/C [8] was 103% and the viability, T/C [9] was 101%. For the same compound, the viability, T/C [10] was 90.1%, the viability, T/C [11] was 68.4% and the viability, T/C [12] was 58%. The viability, T/C [13] was 102%, the viability, T/C [14] was 99% and the viability, T/C [15] was 94%. For the same compound, the viability, T/C [16] was 87.3%, the viability, T/C [17] was 70.3% and the viability, T/C [18] was 61.2%. For the same compound, the viability, T/C [19] was 100%, the viability, T/C [20] was 99.4% and the viability, T/C [21] was 91.1%. It also gave a viability, T/C [22] of 90.6%, a viability, T/C [23] of 72.9% and a viability, T/C [24] of 54.6%. For the same compound, the viability, T/C [25] was 99.2%, the viability, T/C [26] was 110% and the viability, T/C [27] was 103%. The viability, T/C [28] was 94.5%, the viability, T/C [29] was 76.1% and the viability, T/C [30] was 58.8%. It also gave a viability, T/C [31] of 90.6%, a viability, T/C [32] of 100% and a viability, T/C [33] of 93.5%. It also gave a viability, T/C [34] of 96.4%, a viability, T/C [35] of 73.3% and a viability, T/C [36] of 54.9%.
With O=C(c1ccc(F)c(F)c1Nc1ccc(I)cc1F)N1CC(O)([C@@H]2CCCCN2)C1 + C=CC(=O)N1CCN(c2nc(OCC3CCCN3C)nc3c(F)c(-c4nc(N)cc(C)c4C(F)(F)F)c(Cl)cc23)C(C)C1 the IC50 (second compound 0.00316 µM) was 129 nM, the IC50 (second compound 0.01 µM) was 158 nM and the IC50 (second compound 0.0316 µM) was 159 nM. The IC50 (second compound 0.1 µM) was 191 nM, the IC50 (second compound 0.316 µM) was 150 nM and the IC50 (second compound 1 µM) was 144 nM. It also gave a viability, T/C [1] of 97.8%, a viability, T/C [2] of 90.8% and a viability, T/C [3] of 83.7%. It also gave a viability, T/C [4] of 53.5%, a viability, T/C [5] of 33.5% and a viability, T/C [6] of 22.8%. For the same compound, the viability, T/C [7] was 106%, the viability, T/C [8] was 90.3% and the viability, T/C [9] was 78.2%. The viability, T/C [10] was 61.2%, the viability, T/C [11] was 34.5% and the viability, T/C [12] was 20.1%. The viability, T/C [13] was 92%, the viability, T/C [14] was 94.4% and the viability, T/C [15] was 82.7%. For the same compound, the viability, T/C [16] was 59.8%, the viability, T/C [17] was 35% and the viability, T/C [18] was 18.9%. It also gave a viability, T/C [19] of 91.6%, a viability, T/C [20] of 96% and a viability, T/C [21] of 86.5%. For the same compound, the viability, T/C [22] was 65.4%, the viability, T/C [23] was 38.1% and the viability, T/C [24] was 23.3%. For the same compound, the viability, T/C [25] was 95.6%, the viability, T/C [26] was 97% and the viability, T/C [27] was 84.5%. The viability, T/C [28] was 58.6%, the viability, T/C [29] was 34% and the viability, T/C [30] was 21.6%. For the same compound, the viability, T/C [31] was 97.3%, the viability, T/C [32] was 96.8% and the viability, T/C [33] was 86.1%. For the same compound, the viability, T/C [34] was 61.5%, the viability, T/C [35] was 26.7% and the viability, T/C [36] was 18.9%.
